Data on 63 compounds can be found in patent US20250034170A1, “SMALL MOLECULE MODULATORS OF GLUCOCEREBROSIDASE ACTIVITY AND USES THEREOF” (Vanqua Bio, Inc., priority 2021, published 2025).

The experiment addresses T1, GCase (Homo sapiens, UniProt P04062).
T1 construct: endogenous in cells; host or cells: HeLa cells
T1 sequence (P04062 40-536): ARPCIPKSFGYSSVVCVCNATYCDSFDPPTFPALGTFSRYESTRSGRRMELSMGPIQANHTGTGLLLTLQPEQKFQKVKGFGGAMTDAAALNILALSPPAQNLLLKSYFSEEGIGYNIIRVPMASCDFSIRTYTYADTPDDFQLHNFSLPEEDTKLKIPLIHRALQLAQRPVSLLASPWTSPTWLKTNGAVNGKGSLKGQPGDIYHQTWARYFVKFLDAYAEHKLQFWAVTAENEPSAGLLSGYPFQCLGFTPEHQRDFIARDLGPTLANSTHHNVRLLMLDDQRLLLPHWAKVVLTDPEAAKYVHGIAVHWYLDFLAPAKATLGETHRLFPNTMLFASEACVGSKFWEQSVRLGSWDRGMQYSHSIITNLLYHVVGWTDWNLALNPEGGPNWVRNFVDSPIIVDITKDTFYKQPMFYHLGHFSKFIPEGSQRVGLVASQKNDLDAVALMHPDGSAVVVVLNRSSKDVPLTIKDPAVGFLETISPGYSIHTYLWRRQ
Description: activation of GCase in a live cell PFB assay in HELA cells. The conditions noted are these: activation of GCase, EC50 ranges. The format is cell-based. How it is done:
Exemplary compounds were evaluated for activation of GCase in a live cell PFB assay in HELA cells (essentially as described in Ysselstein et al., “LRRK2 kinase activity regulates lysosomal glucocerebrosidase in neurons derived from Parkinson's disease patients” Nature Communications (2019) 10:5570). […] EC50 ranges: A: <10 μM; B: >10-50 μM; C: >50-100 μM; D: >100 μM.
As to `CC1CN(c2cnc3cnn(CC(F)F)c3n2)CC[C@@]12CCN(c1cccc(C(F)(F)F)n1)C2=O` (stereo partly drawn) [Cmpd 670], the EC50 fell in the range of 10 to 50 µM.
`CN(C)C(=O)c1cccc(N2CCC3(CCN(c4cnc5cnn(CC(F)F)c5n4)CC3)C2=O)n1` [Cmpd 671] displayed an EC50 of less than 10 µM.
For the compound `COCCOc1cccc(N2CCC3(CCN(c4cnc5cnn(CC(F)F)c5n4)CC3)C2=O)n1` [Cmpd 672], the EC50 was in the range of 10 to 50 µM.
For the compound `O=C1N(c2ccc(C(F)(F)F)nc2)CCC12CCN(c1cnc3cnn(CC(F)F)c3n1)CC2` [Cmpd 673], the EC50 was less than 10 µM.
Next, `O=C1N(c2cncc(C(F)(F)F)c2)CCC12CCN(c1cnc3cnn(CC(F)F)c3n1)CC2` [Cmpd 674]: less than 10 µM; `O=C1N(c2cnccc2C(F)(F)F)CCC12CCN(c1cnc3cnn(CC(F)F)c3n1)CC2` [Cmpd 675]: 10 to 50 µM.
Next, `O=C1N(c2ccnc(C(F)(F)F)c2)CCC12CCN(c1cnc3cnn(CC(F)F)c3n1)CC2` [Cmpd 676]: less than 10 µM.
In the case of `O=C1N(c2ccncc2C(F)(F)F)CCC12CCN(c1cnc3cnn(CC(F)F)c3n1)CC2` [Cmpd 677], the EC50 is 10 to 50 µM.
Consider `O=C1N(c2ccc(C(F)(F)F)cn2)CCC12CCN(c1cnc3cnn(CC(F)F)c3n1)CC2` [Cmpd 678], for which the EC50 was in the range of 10 to 50 µM.
Take `O=C1N(c2ncccc2C(F)(F)F)CCC12CCN(c1cnc3cnn(CC(F)F)c3n1)CC2` [Cmpd 679]: the half-maximal effective concentration (EC50) is 10 to 50 µM.
The value for `O=C1CC2(CCN(c3cnc4cnn(CC(F)F)c4n3)CC2)CN1c1ccc(C(F)(F)F)nc1` [Cmpd 680] was 10 to 50 µM; that for `O=C1CC2(CCN(c3cnc4cnn(CC(F)F)c4n3)CC2)CN1c1cncc(C(F)(F)F)c1` [Cmpd 681] was 10 to 50 µM.
The value for `O=C1CC2(CCN(c3cnc4cnn(CC(F)F)c4n3)CC2)CN1c1cnccc1C(F)(F)F` [Cmpd 682] was 10 to 50 µM.
Take `O=C1CC2(CCN(c3cnc4cnn(CC(F)F)c4n3)CC2)CN1c1ccnc(C(F)(F)F)c1` [Cmpd 683]: the 50% effective concentration (EC50) is less than 10 µM.
Take `O=C1CC2(CCN(c3cnc4cnn(CC(F)F)c4n3)CC2)CN1c1ccncc1C(F)(F)F` [Cmpd 684]: the EC50 was less than 10 µM.
Next, `O=C1CC2(CCN(c3cnc4cnn(CC(F)F)c4n3)CC2)CN1c1ccc(C(F)(F)F)cn1` [Cmpd 685]: 10 to 50 µM; `O=C1CC2(CCN(c3cnc4cnn(CC(F)F)c4n3)CC2)CN1c1ncccc1C(F)(F)F` [Cmpd 686]: greater than 100 µM.
The compound `FC(F)Cn1ncc2ncc(N3CCC4(CCC(Oc5ccncc5C(F)(F)F)C4)CC3)nc21` (stereo not drawn) [Cmpd 687] returned an EC50 of less than 10 µM.
Next, `FC(F)Cn1ncc2ncc(N3CCC4(CCC(Oc5cnccc5C(F)(F)F)C4)CC3)nc21` (stereo not drawn) [Cmpd 688]: less than 10 µM; `FC(F)Cn1ncc2ncc(N3CCC4(CCC(Oc5ncccc5C(F)(F)F)C4)CC3)nc21` (stereo not drawn) [Cmpd 689]: 10 to 50 µM.
With `FC(F)Cn1ncc2ncc(N3CCC4(CCC(Oc5ccnc(C(F)(F)F)c5)C4)CC3)nc21` (stereo not drawn) [Cmpd 690], the EC50 is less than 10 µM.
With `FC(F)Cn1ncc2ncc(N3CCC4(CCC(Oc5cncc(C(F)(F)F)c5)C4)CC3)nc21` (stereo not drawn) [Cmpd 691], the EC50 was 10 to 50 µM.
The value for `FC(F)Cn1ncc2ncc(N3CCC4(CCC(Oc5cc(C(F)(F)F)ccn5)C4)CC3)nc21` (stereo not drawn) [Cmpd 692] was 10 to 50 µM; that for `FC(F)Cn1ncc2ncc(N3CCC4(CCC(Oc5ccc(C(F)(F)F)nc5)C4)CC3)nc21` (stereo not drawn) [Cmpd 693] was less than 10 µM.
The value for `FC(F)Cn1ncc2ncc(N3CCC4(CCC(Oc5ccc(C(F)(F)F)cn5)C4)CC3)nc21` (stereo not drawn) [Cmpd 694] was 10 to 50 µM; that for `FC(F)Cn1ncc2ncc(N3CCC4(CC3)CC(COc3ccnc(C(F)(F)F)c3)C4)nc21` [Cmpd 695] was less than 10 µM.
The compound `FC(F)Cn1ncc2ncc(N3CCC4(CC3)CC(COc3cncc(C(F)(F)F)c3)C4)nc21` [Cmpd 696] returned a concentration for a half-maximal effect (EC50) of less than 10 µM.
The value for `FC(F)Cn1ncc2ncc(N3CCC4(CC3)CC(COc3cc(C(F)(F)F)ccn3)C4)nc21` [Cmpd 697] was 10 to 50 µM; that for `FC(F)Cn1ncc2ncc(N3CCC4(CC3)CC(COc3ccncc3C(F)(F)F)C4)nc21` [Cmpd 698] was less than 10 µM.
The value for `FC(F)Cn1ncc2ncc(N3CCC4(CC3)CC(COc3cnccc3C(F)(F)F)C4)nc21` [Cmpd 699] was less than 10 µM; that for `FC(F)Cn1ncc2ncc(N3CCC4(CC3)CC(COc3ncccc3C(F)(F)F)C4)nc21` [Cmpd 700] was less than 10 µM.
The value for `FC(F)Cn1ncc2ncc(N3CCC4(CC3)CC(COc3ccc(C(F)(F)F)nc3)C4)nc21` [Cmpd 701] was 10 to 50 µM.
On to `FC(F)Cn1ncc2ncc(N3CCC4(CC3)CC(COc3ccc(C(F)(F)F)cn3)C4)nc21` [Cmpd 702], for which the EC50 lay within 10 to 50 µM.
Regarding `FC(F)Cn1ncc2ncc(N3CCC4(CC3)CC(Oc3ccnc(C(F)(F)F)c3)C4)nc21` [Cmpd 703], the half-maximal effective concentration (EC50) is less than 10 µM.
Next, `FC(F)Cn1ncc2ncc(N3CCC4(CC3)CC(Oc3cncc(C(F)(F)F)c3)C4)nc21` [Cmpd 704]: less than 10 µM; `FC(F)Cn1ncc2ncc(N3CCC4(CC3)CC(Oc3cc(C(F)(F)F)ccn3)C4)nc21` [Cmpd 705]: 10 to 50 µM; `FC(F)Cn1ncc2ncc(N3CCC4(CC3)CC(Oc3ccncc3C(F)(F)F)C4)nc21` [Cmpd 706]: less than 10 µM.
In turn, `FC(F)Cn1ncc2ncc(N3CCC4(CC3)CC(Oc3cnccc3C(F)(F)F)C4)nc21` [Cmpd 707] yielded an EC50 of 10 to 50 µM.
Regarding `FC(F)Cn1ncc2ncc(N3CCC4(CC3)CC(Oc3ncccc3C(F)(F)F)C4)nc21` [Cmpd 708], the half-maximal effective concentration (EC50) was 10 to 50 µM.
In the case of `FC(F)Cn1ncc2ncc(N3CCC4(CC3)CC(Oc3ccc(C(F)(F)F)nc3)C4)nc21` [Cmpd 709], the EC50 was 10 to 50 µM.
Next, `FC(F)Cn1ncc2ncc(N3CCC4(CC3)CC(Oc3ccc(C(F)(F)F)cn3)C4)nc21` [Cmpd 710]: 10 to 50 µM; `O=C1N(c2cc(C(F)(F)F)ccn2)C(=O)C2(CCN(c3cnc4cnn(CC(F)F)c4n3)CC2)N1CC1CC1` [Cmpd 711]: 10 to 50 µM; `O=C1N(c2cc(C(F)(F)F)ccn2)C(=O)C2(CCN(c3cnc4cnn(CC(F)F)c4n3)CC2)N1CCC1CC1` [Cmpd 712]: 10 to 50 µM.
The value for `COCCN1C(=O)N(c2cc(C(F)(F)F)ccn2)C(=O)C12CCN(c1cnc3cnn(CC(F)F)c3n1)CC2` [Cmpd 713] was less than 10 µM; that for `O=C1N(c2cc(C(F)(F)F)ccn2)C(=O)C2(CCN(c3cnc4cnn(CC(F)F)c4n3)CC2)N1Cc1ccc(F)cc1F` [Cmpd 714] was less than 10 µM; that for `O=C1N(c2cc(C(F)(F)F)ccn2)C(=O)C2(CCN(c3cnc4cnn(CC(F)F)c4n3)CC2)N1Cc1c(F)cccc1F` [Cmpd 715] was less than 10 µM.
The value for `O=C1N(c2cc(C(F)(F)F)ccn2)C(=O)C2(CCN(c3cnc4cnn(CC(F)F)c4n3)CC2)N1Cc1cc(F)cc(F)c1` [Cmpd 716] was less than 10 µM; that for `O=C1N(c2cc(C(F)(F)F)ccn2)C(=O)C2(CCN(c3cnc4cnn(CC(F)F)c4n3)CC2)N1Cc1cccc(F)c1F` [Cmpd 717] was less than 10 µM; that for `O=C1N(c2cc(C(F)(F)F)ccn2)C(=O)C2(CCN(c3cnc4cnn(CC(F)F)c4n3)CC2)N1Cc1cc(F)ccc1F` [Cmpd 718] was less than 10 µM.
For `O=C1N(c2cc(C(F)(F)F)ccn2)C(=O)C2(CCN(c3cnc4cnn(CC(F)F)c4n3)CC2)N1Cc1ccc(F)c(F)c1` [Cmpd 719], the EC50 was less than 10 µM.
The value for `O=C1CC2(CN1c1ccnc(C(F)(F)F)c1)C1CC2CN(c2cnc3cnn(CC(F)F)c3n2)C1` (stereo not drawn) [Cmpd 721] was greater than 100 µM; that for `O=C1CC2(CN1c1ccc(F)c(C(F)(F)F)c1)C1CC2CN(c2cnc3cnn(CC(F)F)c3n2)C1` (stereo not drawn) [Cmpd 722] was 10 to 50 µM.
Next, `O=C1CC2(CC3CCC(C2)N3c2cnc3cnn(CC(F)F)c3n2)CN1c1cc(C(F)(F)F)ccn1` (stereo not drawn) [Cmpd 723]: 10 to 50 µM; `O=C1CC2(CN1c1cc(C(F)(F)F)ccn1)C1CCC2CN(c2cnc3cnn(CC(F)F)c3n2)C1` (stereo not drawn) [Cmpd 724]: 10 to 50 µM.
Regarding `CC1CN(c2cnc3cnn(CC(F)F)c3n2)CCC12CC(=O)N(c1cc(C(F)(F)F)ccn1)C2` (stereo not drawn) [Cmpd 725], the EC50 lay within 10 to 50 µM.
As to `CC1CC2(CCN1c1cnc3cnn(CC(F)F)c3n1)CC(=O)N(c1cc(C(F)(F)F)ccn1)C2` (stereo not drawn) [Cmpd 726], the EC50 lay in the range of 10 to 50 µM.
Next, `O=C1CC2(CCN(c3cnc4cnn(CC(F)F)c4n3)CC2)CN1c1ccc(F)cc1F` [Cmpd 728]: 10 to 50 µM; `O=C1CC2(CCN(c3cnc4cnn(CC(F)F)c4n3)CC2)CN1c1ccc(C(F)(F)F)cc1F` [Cmpd 729]: less than 10 µM.
The value for `Fc1ccc(N2CCC3(CCN(c4cnc5cnn(CC(F)F)c5n4)CC3)C2)c(F)c1` [Cmpd 730] was 10 to 50 µM; that for `FC(F)Cn1ncc2ncc(N3CCC4(CCN(c5cnnc(C(F)(F)F)c5)C4)CC3)nc21` [Cmpd 731] was 10 to 50 µM; that for `FC(F)Cn1ncc2ncc(N3CCC4(CCN(c5ccc(C(F)(F)F)nn5)C4)CC3)nc21` [Cmpd 732] was 10 to 50 µM.
On to `FC(F)Cn1ncc2ncc(N3CCC4(CCN(c5cncc(C(F)(F)F)n5)C4)CC3)nc21` [Cmpd 733], for which the EC50 is less than 10 µM.
The value for `FC(F)Cn1ncc2ncc(N3CCC4(CCN(c5cnc(C(F)(F)F)cn5)C4)CC3)nc21` [Cmpd 734] was less than 10 µM.

The term EC50 denotes the concentration needed to bring the measured effect to its halfway point. Low values mean higher potency in that assay, high ones lower potency in that assay.
